Test results as given in patent US11753410B2, “Hormone receptor modulators for treating metabolic mutagenic and fibrotic conditions and disorders” (priority 2017, dated 2023).

Columns and labels:
[1] = molecular target: T1, ligand binding domain of human FXR (Homo sapiens, UniProt Q96RI1); experiment: biochemical; conditions: for Emax: extent of activation relative to GW4064, read-out: Ligand Binding % Efficacy; for EC50: −log EC50, concentration required to produce 50% activation, FRET 520 nm/495 nm, 1 hour at room temperature, read-out: Ligand Binding pEC50 (converted)
T1 construct: purchased Thermofisher (LanthaScreen) PV4833
T1 sequence (Q96RI1 262-486 limits assumed): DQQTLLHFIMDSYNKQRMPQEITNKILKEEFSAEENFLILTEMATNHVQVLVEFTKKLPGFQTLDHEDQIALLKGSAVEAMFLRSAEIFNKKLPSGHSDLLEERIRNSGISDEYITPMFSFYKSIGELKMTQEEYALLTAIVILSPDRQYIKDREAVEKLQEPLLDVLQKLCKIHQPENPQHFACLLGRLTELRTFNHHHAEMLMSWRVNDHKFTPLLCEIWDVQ
Method: The affinity of FXR ligands for the ligand binding domain of FXR was determined using a commercially available human FXR ligand binding assay (LanthaScreen, Thermofisher Cat #PV4833). […] Binding of FXR ligands to the FXR ligand binding domain promotes binding of the fluorescein-labelled SRC2-2 peptide. This causes a FRET signal between the terbium-labelled anti-GST antibody and the fluorescein-labelled SRC peptide which are both bound to the FXR ligand binding domain.
Test compounds are dissolved in DMSO and a 3-fold serial dilution series is generated, then further diluted into assay buffer. The compounds are mixed with 5 nM GST-tagged FXR ligand binding domain, 5 nM Tb-labelled anti-GST antibody and 500 nM fluorescein-labelled SRC2-2 peptide in a pH7.4 buffer. The reaction is incubated at room temperature for 1 hour, then the FRET signal is measured as the ratio of the 520 nm/495 nm emission following excitation at 340 nm. The change in FRET signal is plotted against the test article concentration and fit to a 3-parameter logistical equation.

[2] = molecular target: T2, human Farnesoid X receptor ligand-binding domain/Gal4 DNA binding domain chimera (Homo sapiens, UniProt Q96RI1); experiment: Cell-based assay of FXR activation (FXR-UAS-bla HEK 293T beta-lactamase reporter); conditions: for Emax: HEK-293T, read-out: Cellular % Efficacy
T2 construct: host or cells: FXR-UAS-bla HEK 293T (CellSensor UAS-bla HEK 293T)
T2 sequence (Q96RI1 262-486 limits assumed): T1 sequence (Q96RI1 262-486 limits assumed)
Method: FXR activation was measured using a cell line and procedure obtained from Life Technologies (Cat #K1691). […] Activation of FXR by bound ligands results in transcriptional activation of the beta-lactamase reporter gene, which is detected via assay of beta-lactamase activity.
Cells are harvested and diluted into assay medium containing phenol red-free DMEM supplemented with 2% Charcoal-stripped FBS, pyruvate, non-essential amino acids. Cells are then transferred to a 384 well assay plate. Test compounds are dissolved in DMSO and a 3-fold serial dilution series is generated, then further diluted into assay medium. Compounds in assay medium are added to cells in the 384 well plate and allowed to incubate 16 h at 37 C in the presence of 5% CO2.
A FRET-based […] (CCF4) is loaded into cells as its acetomethoxy ester. Intracellular esterases liberate free CCF4, a cephalosporin core linking 7-hydroxycoumarin to fluorescein. In the presence of beta-lactamase activity produced in the presence of FXR agonists, cleavage of CCF4 spatially separates the two dyes and disrupts FRET, so that exciting the coumarin at 409 nm now produces a blue fluorescence signal at 447 nm. The change in FRET signal is plotted against the test compound concentration and fit to a 3-parameter logistical equation.

Row | Compound | Emax [1] | EC50 [1] | EC50 [2] | Emax [2]
1 | O=C(O)c1cc([C@@H]2CCOC2)c2nc(N3C[C@@H]4C[C@H]3C[C@H]4OCc3c(-c4c(Cl)cccc4Cl)cnn3C3CC3)sc2c1 (single isomer, unassigned) [Compound I-50] | 78% | 100 nM | 100 nM | 100%
2 | O=C(O)c1cc([C@H]2CCOC2)c2nc(N3C[C@@H]4C[C@H]3C[C@H]4OCc3c(-c4c(Cl)cccc4Cl)cnn3C3CC3)sc2c1 (single isomer, unassigned) [Compound I-51] | 96% | 251 nM | 158 nM | 100%
3 | O=C(O)c1cc([C@H]2CCOC2)c2nc(N3C[C@@H]4C[C@H]3C[C@H]4OCc3c(C4CC4)nnn3-c3c(Cl)cccc3Cl)sc2c1 (single isomer, unassigned) [Compound I-58] | 145% | 2 nM | 1 nM | 102%
4 | O=C(O)c1cc([C@@H]2CCOC2)c2nc(N3C[C@@H]4C[C@H]3C[C@H]4OCc3c(C4CC4)nnn3-c3c(Cl)cccc3Cl)sc2c1 (single isomer, unassigned) [Compound I-59] | 137% | 1.58 nM | 2.51 nM | 100%
5 | O=C(O)c1cc([C@H]2CCOC2)c2nc(N3C[C@@H]4C[C@H]3C[C@H]4OCc3c(-c4c(Cl)cccc4Cl)nnn3C3CC3)sc2c1 (single isomer, unassigned) [Compound I-65] | 136% | 25.1 nM | 10 nM | 108%
6 | O=C(O)c1cc([C@@H]2CCOC2)c2nc(N3C[C@@H]4C[C@H]3C[C@H]4OCc3c(-c4c(Cl)cccc4Cl)nnn3C3CC3)sc2c1 (single isomer, unassigned) [Compound I-66] | 140% | 15.8 nM | 15.8 nM | 110%
7 | O=C(O)c1ccc(N2C[C@@H]3C[C@H]2C[C@H]3OCc2c(C3CC3)cnn2-c2c(Cl)cccc2Cl)cc1 [Compound I-1, 4-[(1S,4S,5R)-5-{[4-cyclopropyl-1-(2,6-dichlorophenyl)-1H-pyrazol-5-yl]methoxy}-2-azabicyclo[2.2.1]heptan-2-yl]benzoic acid] | 121% | 6.31 nM | 1.58 nM | 110%
8 | O=C(O)c1ccc(N2C[C@@H]3C[C@H]2C[C@H]3OCc2c(C3CC3)cnn2-c2c(Cl)cccc2Cl)cc1F [Compound I-2, 4-[(1S,4S,5R)-5-{[4-cyclopropyl-1-(2,6-dichlorophenyl)-1H-pyrazol-5-yl]methoxy}-2-azabicyclo[2.2.1]heptan-2-yl]-2-fluorobenzoic acid] | 133% | 5.01 nM | 2 nM | 104%
9 | O=C(O)c1ccc(N2C[C@@H]3C[C@H]2C[C@H]3OCc2c(C3CC3)cnn2-c2c(F)cccc2F)cc1F [Compound I-10, 4-[(1S,4S,5R)-5-{[4-cyclopropyl-1-(2,6-difluorophenyl)-1H-pyrazol-5-yl]methoxy}-2-azabicyclo[2.2.1]heptan-2-yl]-2-fluorobenzoic acid] | 164% | 158 nM | 31.6 nM | 118%
10 | O=C(NS(=O)(=O)C1CCOCC1)c1ccc(N2C[C@@H]3C[C@H]2C[C@H]3OCc2c(C3CC3)cnn2-c2c(Cl)cccc2Cl)cc1 [Compound I-20, 4-[(1S,4S,5R)-5-{[4-cyclopropyl-1-(2,6-dichlorophenyl)-1H-pyrazol-5-yl]methoxy}-2-azabicyclo[2.2.1]heptan-2-yl]-N-(oxane-4-sulfonyl)benzamide] | 147% | 3.16 nM | 0.794 nM | 102%
11 | O=C(NS(=O)(=O)C1CCOC1)c1ccc(N2C[C@@H]3C[C@H]2C[C@H]3OCc2c(C3CC3)cnn2-c2c(Cl)cccc2Cl)cc1 (stereo partly drawn) [Compound I-23, 4-((1S,4S,5R)-5-((4-cyclopropyl-1-(2,6-dichlorophenyl)-1H-pyrazol-5-yl)methoxy)-2-azabicyclo[2.2.1]heptan-2-yl)-N-((tetrahydrofuran-3-yl)sulfonyl)benzamide] | 164% | 3.98 nM | 2.51 nM | 111%
